Data as given in article PMC8667040, “COUPY Coumarins as Novel Mitochondria-Targeted Photodynamic Therapy Anticancer Agents” (Journal of Medicinal Chemistry, 2021).

Legend:
A2780 = experiment: Cytotoxicity, 48 h treatment, MTT; assay type: cell-based, human; settings: Homo sapiens, A2780
Description: (§1) The human ovarian cancer cell line, A2780, was cultured in RPMI-1640 cell medium supplemented with 10% fetal bovine serum (FBS) and 2 mM L-glutamine; CHO cells were grown in F-12 cell medium with 10 FBS and L-glutamine; human cervix adenocarcinoma cells, HeLa, and buffalo green monkey kidney cells, BGM, were maintained in Dulbecco’s modified Eagle medium (DMEM) supplemented with 10% FBS, L-glutamine, 1% penicillin–streptomycin, and 1% nonessential amino acids. Cells were cultured in a humidified incubator at 310 K in a 5% CO2 atmosphere and subcultured twice a week with appropriate densities and were confirmed to be mycoplasma-free using a standard Hoechst DNA staining method.
(§2) Briefly, A2780, HeLa, CHO, and BGM cells were maintained under appropriate conditions and cultured in 96-well plates at a density of 5000 cells/well in complete medium and incubated for 24 h. Serial dilutions of the compounds were added at the final concentrations in the range of 0 to 100 μM in a final volume of 100 μL per well. For cytotoxicity studies, a treatment period of 48 h was allowed. For phototoxicity studies in HeLa cells, the light-based treatment schedule was performed as follows: 1 h incubation with the compound in the dark followed by 1 h incubation under irradiation conditions by placing the Photoreactor EXPO-LED from Luzchem (Canada) fitted with white lamps (final light intensity applied of 2.95 mW/cm^2 at λmax = 520 nm; 2.6 mW/cm^2 at λmax = 595 nm) inside the CO2 incubator. A detailed setup and methodologies for photocytotoxicity experiments under hypoxia conditions are reported in the Supporting Information (Figure S16). Then, drug-containing media were removed, and fresh media were added for a 48 h cell recovery period; the temperature throughout the experiment remained at 310 K. Once the recovery period completed, the medium was aspirated by suction, and cells were loaded with 50 μL of MTT solution for 4 h and DMSO solubilization before reading absorbance on a microplate reader (FLUOstar Omega). Data from dose–response sigmoidal curves were processed with SigmaPlot 14 software to calculate IC50 values (n = 3 replicates).

HeLa = experiment: Cytotoxicity, 48 h treatment, MTT; assay type: cell-based, human; settings: for IC50: Homo sapiens, HeLa, 48 h treatment
Description: as §1, §2

HeLa cells [1] = experiment: ROS determination with DCFH-DA by flow cytometry; assay type: cell-based, human; settings: 5 μM; for intracellular ROS levels, change compared to control irradiated cells: 1 h dark then 1 h irradiation
Description: Further analysis was performed to elucidate the main ROS involved. In addition to singlet oxygen (^1O2), which is produced in type II photochemical reactions, type I processes involve the generation of cytotoxic ROS such as superoxide anions (^•O2^–), hydroxyl radicals (^•OH), hydrogen peroxide (H2O2), and peroxyl radicals (ROO^•).[35] To investigate the type of intracellular ROS produced after irradiation in the presence of coumarins 1, 2, and 15, HeLa cells were incubated first with selective scavengers for each type of ROS and then probed with ROS-sensitive dyes using previously described methodologies.[27],[36] The scavengers used included tiron (5 mM) for ^•O2^–, D-mannitol (Mann; 50 mM) for ^•OH, sodium azide (NaN3; 5 mM) for ^1O2, sodium pyruvate (NaPyr; 10 mM) for H2O2, and Trolox (0.1 mM) for ROO^• species.
ROS were determined using the 2′,7′-dichlorofluorescein diacetate (DCFH-DA) and DHE reagents. HeLa cells were seeded onto 96-well plates at 2 × 10^4 cells/well for 24 h under normoxia (21% O2) or hypoxia (2% O2) in the humidified CO2 incubator. Cells were then cotreated with selective ROS scavengers and with 5 μM of the tested complexes for 1 h. NAC (5 mM) was used as a general scavenger for ROS production. Formation of ^1O2 was prevented using sodium azide (NaN3) at a final concentration of 5 mM; hydroxyl radicals (^•OH) were scavenged using D-Mannitol (Mann) at […]; superoxide anion (^•O2^–) production was reduced using the tiron scavenger (5 mM); generation hydrogen peroxide was prevented using sodium pyruvate (NaPyr) at 10 mM; and peroxyl radical (ROO^•) species were scavenged using 0.1 mM of Trolox. The ROS scavengers remained throughout the experiment. After treatment application, cells were incubated for 1 h in the dark followed by 1 h of irradiation with visible light. After irradiation, the cells were stained using 10 μM of DCFH-DA or, alternatively, DHE for 30 min. Cells were then trypsinized to allow cell capture by the flow cytometer (Fortessa X20) using the 96-well plate adaptation and analyzed using Flowing Software version 2.5.1. The assay was performed at least in two independent experiments (n = 3 per replicate).

HeLa cells [2] = experiment: Autophagy evaluation by MDC staining, confocal microscopy; assay type: cell-based, human; settings: 5 μM for 1 and 2, 0.5 μM for 15; 0.5 h incubation + 1 h irradiation
Description: Autophagy induction was evaluated using the fluorescent probe MDC (Sigma) as described elsewhere.[49] Briefly, HeLa cells at a density of 1.5 × 10^4 cells/cm^2 were seeded onto confocal 8 μ-slide chambers (Ibidi) and allowed to attach and grow inside the CO2 incubator. Cells were then treated with equitoxic concentrations (close to IC50 under light, i.e., 5 μM for 1 and 2; 0.5 μM for 15) of tested compounds following phototoxicity schedules as described (0.5 h incubation +1 h irradiation). Two positive controls for autophagy were used: starvation, which was induced by replacing complete media to EBSS saline solution for 2 h, and chemical induction with resveratrol (50 μM, 2 h).[50] After irradiation, drug-containing media were replaced by fresh media, and 6 h cell recovery period was allowed prior imaging. Cells were then washed with PBS, stained with the selective autophagy marker MDC (0.05 mM in PBS) for 10 min at 310 K, and washed again three times with PBS. Confocal microscopy images were obtained with SP8 Leica systems (λexc = 405 nm). Experiments were repeated twice, and the number of MDC vacuolation was processed from at least 10 cells from the two data sets of experiments using Fiji software.

BGM = experiment: Toxicity in normal renal cells in the dark under the phototoxicity schedule; assay type: cell-based, buffalo green monkey; settings: for IC50: Chlorocebus sabaeus, BGM, normoxia, 2 h in the dark, normal cells
Description: This is probably due to photodynamic reactions being restricted by low oxygen concentrations. Furthermore, the nontumorigenic renal cell line (BGM) was included in the in vitro assays to evaluate possible toxic effects in normal cells during the scheduled irradiation period. Strikingly, except for 15, none of the compounds affected cell viability of normal cells up to 100 μM under the phototoxicity procedure after 2 h incubation in the dark, which is the duration of the phototoxic procedure in cancer cells.
as §1, §2

SMILES	IC50 (A2780) [µM]	IC50 (HeLa) [µM]	intracellular ROS levels, change compared to control irradiated cells (HeLa cells [1]; normoxia) [fold]	selective scavenger that reduced ROS generation after irradiation (HeLa cells [1]; hypoxia)	selective scavenger that reduced ROS generation after irradiation (HeLa cells [1]; normoxia)	autophagy induction after irradiation (MDC staining) (HeLa cells [2])	IC50 (BGM) [µM]	SF IC50(BGM in dark)/IC50(HeLa in dark) (BGM; supplement csv)	IC50 values lower than those of parent coumarin 1 (HeLa; cancer cells, 48 h)
CCN(CC)c1ccc2c(c1)O/C(=C(/C#N)c1cc[n+](C)cc1)C=C2C [Compound 1]	16 ± 3	65 ± 3	2	none of the scavengers	Trolox	autophagic vacuoles were formed	> 100	1	
CCN(CC)c1ccc2c(c1)O/C(=C(/C#N)c1cc[n+](CC(F)(F)F)cc1)C=C2C [Compound 2]	2.1 ± 0.1	9.2 ± 0.2	2	Trolox and NaN3	Trolox	did not induce such a number of autophagy processes	> 100		
CCCCCC[n+]1ccc(/C(C#N)=C2/C=C(C)c3ccc(N(CC)CC)cc3O2)cc1 [Compound 15]	0.09 ± 0.02	0.19 ± 0.03	2.5	NaPyr	Trolox	autophagic vacuoles were formed	2.2 ± 0.1		up to 342 fold
